Measured values from paper PMC2837340 (ACS Chemical Neuroscience, 2009).

Experiments:
[1] = target: horse spleen apoferritin (HSAF) (Equus caballus, UniProt P02791); experiment: isothermal titration calorimetry; assay type: binding
[2] = target: T1, Shaw2 K+ channel (Shaw2 F335A) (Drosophila melanogaster, UniProt P17972, F335A); experiment: two-electrode voltage clamp, Xenopus oocytes; assay type: cell-based; conditions: read-out: % inhibition at 2 mM
T1 sequence (P17972 1-498 F335A): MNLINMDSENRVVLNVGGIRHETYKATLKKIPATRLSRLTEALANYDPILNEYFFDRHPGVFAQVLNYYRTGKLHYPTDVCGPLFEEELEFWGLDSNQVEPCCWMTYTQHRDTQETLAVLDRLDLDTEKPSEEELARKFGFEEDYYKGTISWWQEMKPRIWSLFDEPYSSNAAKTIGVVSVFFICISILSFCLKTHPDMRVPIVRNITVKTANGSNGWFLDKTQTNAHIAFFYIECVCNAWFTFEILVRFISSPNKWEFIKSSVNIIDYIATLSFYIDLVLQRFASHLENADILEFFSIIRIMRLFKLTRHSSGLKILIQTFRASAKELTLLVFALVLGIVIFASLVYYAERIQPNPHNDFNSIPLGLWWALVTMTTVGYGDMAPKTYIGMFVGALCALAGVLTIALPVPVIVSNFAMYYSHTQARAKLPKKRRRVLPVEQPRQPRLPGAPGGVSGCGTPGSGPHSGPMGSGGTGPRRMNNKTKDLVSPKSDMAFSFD

horse spleen apoferritin (HSAF), sequence (P02791 2-175): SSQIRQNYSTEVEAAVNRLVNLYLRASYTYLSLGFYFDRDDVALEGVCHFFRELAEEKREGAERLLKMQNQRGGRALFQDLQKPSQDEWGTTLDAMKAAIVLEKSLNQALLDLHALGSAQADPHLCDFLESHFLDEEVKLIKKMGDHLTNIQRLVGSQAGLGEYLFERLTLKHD
horse spleen apoferritin (HSAF), sequence (Q8MIP0 2-182 partner): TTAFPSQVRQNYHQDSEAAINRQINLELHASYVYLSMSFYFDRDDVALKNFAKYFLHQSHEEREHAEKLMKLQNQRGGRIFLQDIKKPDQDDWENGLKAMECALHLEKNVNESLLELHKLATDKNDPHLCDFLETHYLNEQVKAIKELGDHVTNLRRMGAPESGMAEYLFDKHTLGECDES

| Compound | Kd [1] [µM] | inhibition at 2000 µM [2] [%] |
| --- | --- | --- |
| FC(F)(F)C(Cl)OC(F)(F)C1N=N1 (racemic) [compound 1, azi-isoflurane] | 6 ± 1 | 77 ± 0.2 |
| FC(F)OC(Cl)C(F)(F)F (stereo not shown) [isoflurane] | 58 ± 2 | 67 |
